Consider 1 substance from patent US12709738B2, “Compositions and methods for increasing the culture density of a cellular biomass within a cultivation infrastructure” (The Upside Group Inc., priority 2017, dated 2026).

Common to all, as to type: cell-based
Experiment [1] deals with Bovine myoblasts. As to the kind of experiment: Cell count by bright field cell imaging after LPA, subconfluent and confluent cultures. The following applies: 96 well plate, LPA 0, 10 or 25 μM. The protocol:
Bovine myoblasts were isolated from a bovine skeletal muscle tissue using the protocol described above. Isolated myoblasts were plated at a culture density of 2000 (subconfluent) or 10,000 (confluent) cells per well in a 96 well plate in triplicate wells. The cells were allowed to adhere for 24 hours, at which time LPA was added at a concentration of 0, 10 or 25 μM in the medium. Cells were subsequently harvested and counted by bright field cell imaging (Cytation 5 live cell imaging, analyzed with Lionheart software). […] Data shown are mean+/−SD. Significance was determined by the Student's T test.

Experiment [2] has as its system Bovine myoblasts. As to the kind of experiment: Differentiation to mature muscle cells by myogenin immunostaining. Conditions: LPA 10 or 25 μM added daily in serum-free medium. The protocol:
Isolated bovine myoblasts were plated in a culture medium without adding serum at a culture density of 10,000 cells per well in a 96 well plate in triplicate wells. The cells were allowed to adhere for 24 hours, when LPA was added at a concentration of 0, 10 or 25 μM in serum-free medium. LPA was added daily until harvesting. Myogenin was used as a marker of differentiation to mature muscle cells. To determine the degree of differentiation to mature muscle cells, cultures were fixed in 4% paraformaldehyde for 10 min and then washed with PBS. Cells were incubated with PBS/0.2% BSA/0.1% Triton-X100 for 20 min followed by incubation with an anti-myogenin antibody (Abcam, mouse, 1/150) for 1 h at room temperature. After 3 washes with PBS/0.2% BSA, cells were incubated with secondary antibodies (goat anti-rabbit Alexa488, 1/800; goat anti-mouse Alexa555, 1/800, Invitrogen) for 30 min at room temperature. Nucleus was stained with DAPI.

In experiment [3] the test system is Bovine myoblasts. Put plainly: Proliferation rate by EdU incorporation (FACS) after LPA. The following applies: 10 μM LPA, 24 hours; compared to vehicle-treated cells; FIG. 5. The protocol:
In another experiment, bovine myoblasts were plated at a culture density of 10,000 cells per well in a 96 well plate in triplicate wells. The cells were allowed to adhere for 24 hours, when 10 μM LPA was added in the medium. Cells were subsequently harvested. After 24 hours, the proliferation rate was measured by EdU incorporation using a commercially available nucleoside pulse labeling kit such as the Click-iT-EdU kit (ThermoFisher). Briefly, cells were treated with 3 μM EdU, incubated at room temperature for 6 hours and detected according to the manufacturer's instructions, Cells were labeled with Alexa Fluor® 647 azide and analyzed using Fluorescence-Activated Cell Sorting (FACS) using 633 nm excitation and a 660/20 nm emission filter.

As for lysophosphatidic acid [LPA], in the experiment with Bovine myoblasts [1] (2000 cells per well, FIG. 4A), the “increase of cells in the subconfluent culture” value is 309%. The “increase of cells in the confluent culture” value in the experiment with Bovine myoblasts [1] (10,000 cells per well, FIG. 4B) amounted to 130%. Besides, in the experiment on Bovine myoblasts [2], the “expression of myogenin (marker of differentiation)” value is given as “reduced expression of myogenin”. In the experiment on Bovine myoblasts [3], the “increase in percentage of cells in the S-phase” value is 216%.
